Test results reported in ChEMBL document CHEMBL4033771, “Development of Potent Myostatin Inhibitory Peptides through Hydrophobic Residue-Directed Structural Modification” (ACS Med Chem Lett, 2017).
Activity calls are given as the source filed them. The rule behind the calls is not given here. Where a SMILES comes first, the peptide text is derived from it. The star is where a group is joined. Acetyl(2-naphthyloxy) = O=C(COc1ccc2ccccc2c1)*

Tests used:
[1] = system: Mus musculus; assay: Increase in gastrocnemius muscle weight in wild type ICR mouse at 0.75 mM, im administered on day 0 and 14 measured on day 42 relative to control; type: functional
[2] = system: Mus musculus; assay: Increase in tibialis anterior muscle weight in mdx mouse at 0.75 mM, im administered on day 0 and 14 measured on day 42 relative to control; type: functional
[3] = system: Mus musculus; assay: Increase in tibialis anterior muscle weight in wild type ICR mouse at 0.75 mM, im administered on day 0 and 14 measured on day 42 relative to control; type: functional
[4] = system: Mus musculus; assay: Increase in gastrocnemius muscle fiber size in mdx mouse at 0.75 mM, im administered on day 0 and 14 measured on day 42 by Hematoxylin and Eosin staining based assay; type: functional, organism-based
[5] = system: Mus musculus; assay: Increase in tibialis anterior muscle weight in wild type mouse at 20 nmol, im after 28 days relative to control; type: functional
[6] = system: Mus musculus; assay: Increase in tibialis anterior muscle weight in caveolin 3-deficient limb gridle muscular destrophy 1C mouse model at 20 nmol, im after 28 days relative to control; type: functional

| Compound | Activity [1] | Activity [2] | Activity [3] | Activity [4] | Activity [5] | Activity [6] |
| --- | --- | --- | --- | --- | --- | --- |
| CC[C@H](C)[C@H](NC(=O)[C@H](CCCNC(=N)N)NC(=O)[C@H](CO)NC(=O)[C@H](Cc1ccc(O)cc1)NC(=O)[C@H](CCCNC(=N)N)NC(=O)[C@@H](NC(=O)[C@H](CC(N)=O)NC(=O)[C@H](CCC(N)=O)NC(=O)[C@H](CCCNC(=N)N)NC(=O)COc1ccc2ccccc2c1)[C@@H](C)O)C(=O)N[C@@H](CCC(=O)O)C(=O)N[C@@H](Cc1c[nH]c2ccccc12)C(=O)N[C@H](C(=O)N[C@@H](CCCCN)C(=O)N[C@H](C(=O)N[C@@H](CCC(N)=O)C(=O)N[C@H](C(=O)N[C@H](C(=O)N[C@@H](CO)C(=O)N[C@@H](CCCCN)C(=O)N[C@@H](CC(C)C)C(=O)N[C@@H](CCCNC(=N)N)C(=O)N[C@@H](CC(C)C)C(N)=O)[C@@H](C)CC)[C@@H](C)CC)[C@@H](C)CC)[C@@H](C)CC ({Acetyl(2-naphthyloxy)}-RQNTRYSRIEWIKIQIISKLRL-NH2) | 11 - 35% | 10 - 19% | 10 - 34% | Active | – | – |
| CC[C@H](C)[C@H](NC(=O)[C@H](C)NC(=O)[C@H](CCC(=O)O)NC(=O)[C@@H](NC(=O)[C@H](CCCNC(=N)N)NC(=O)[C@H](CO)NC(=O)[C@H](Cc1ccc(O)cc1)NC(=O)[C@H](CCCNC(=N)N)NC(=O)[C@@H](NC(=O)[C@H](CC(N)=O)NC(=O)[C@H](CCC(N)=O)NC(=O)[C@H](CCCNC(=N)N)NC(=O)[C@H](Cc1c[nH]c2ccccc12)NC(=O)[C@H](C)NC(=O)[C@@H](N)CS)[C@@H](C)O)[C@@H](C)CC)C(=O)N[C@@H](CCCCN)C(=O)N[C@H](C(=O)N[C@@H](CCC(N)=O)C(=O)N[C@H](C(=O)N[C@@H](CC(C)C)C(=O)N[C@@H](CO)C(=O)N[C@@H](CCCCN)C(=O)N[C@@H](CC(C)C)C(=O)N[C@@H](CCCNC(=N)N)C(=O)N[C@@H](CC(C)C)C(=O)N[C@@H](CCC(=O)O)C(=O)N[C@H](C(=O)N[C@@H](C)C(=O)N1CCC[C@H]1C(N)=O)[C@@H](C)O)[C@@H](C)CC)[C@@H](C)CC (H-CAWRQNTRYSRIEAIKIQILSKLRLETAP-NH2) | – | – | – | – | 10.6% | 20.6% |
